Measured values: patent EP4702986A1, “POLYPEPTIDE AND USE THEREOF” (Biocells (Beijing) Biotech Co., Ltd., priority 2023, dated 2024)
“Also recorded” adds a separate entry of the source. Numbered stars: 1 amine (or outer) side, 2 acyl side, 3 side chain; on linkers, the order of the positions; unused ones are H or OH. Square brackets hold non-standard residues; d marks the D form. Side chains are listed from the residue outwards. Peptide text beside a SMILES is read from it. * marks the point of attachment. ξ: configuration not given here. γGlu = O=C(O)[C@H](CCC(=O)[*:2])N[*:1]; Feruloyl = COc1cc(/C=C/C(=O)*)ccc1O; ξ2Nal = NC(Cc1ccc2ccccc2c1)C(=O)O; Fumaroyl = O=C(O)/C=C/C(=O)*; Lauroyl = CCCCCCCCCCCC(=O)*; AEEA = NCCOCCOCC(=O)O

Key:
[1] = biological target: T1, human ETB receptor (Homo sapiens, UniProt P24530); experiment: Determination of EC50 of polypeptides against human ETB receptor (IP-One Gq kit); assay type: cell-based; conditions: 293T-17 cells transfected with PCDNA3.1-hETB; read-out: hETBR agonist activity EC50/nM
T1 construct: expressed in transfected cells; host or cells: 293T-17 cells, transient transfection
T1 sequence (P24530 27-442): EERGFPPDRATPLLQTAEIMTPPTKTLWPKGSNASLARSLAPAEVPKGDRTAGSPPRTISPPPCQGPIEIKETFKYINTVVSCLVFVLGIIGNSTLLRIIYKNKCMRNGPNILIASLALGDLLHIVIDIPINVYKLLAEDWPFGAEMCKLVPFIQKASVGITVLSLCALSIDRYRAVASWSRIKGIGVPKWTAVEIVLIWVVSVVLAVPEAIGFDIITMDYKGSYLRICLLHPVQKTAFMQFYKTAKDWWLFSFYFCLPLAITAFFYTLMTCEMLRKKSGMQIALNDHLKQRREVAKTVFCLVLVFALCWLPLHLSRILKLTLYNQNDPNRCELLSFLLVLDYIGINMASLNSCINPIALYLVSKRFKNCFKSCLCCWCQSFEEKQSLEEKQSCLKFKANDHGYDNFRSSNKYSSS
Description: 293T-17 cells were seeded at a density of 650,000 cells per well in a 6-well plate and cultured overnight in an incubator at 37°C and 5% CO2. Afterward, the cells were transfected with an expression vector, PCDNA3.1-hETB which contained a human ETB receptor gene, at a plasmid concentration of 2.5 µg per well. The cells were further cultured for 48 hours, and green fluorescence expression was observed under a fluorescence microscope. The cells were then digested with trypsin and counted. The activity of compounds on the human ETB receptor was determined with the IP-One Gq kit from Cisbio Bioassays. The cells were suspended in Stim Buffer provided in the kit and the cell suspension was added to a 96-well detection plate at 7 µL cell suspension (containing 30,000 cells) per well. The polypeptides to be tested (prepared according to the Preparation Example of the invention) were diluted in Stim B to obtain a gradient of 11 concentration points. For each concentration point, the polypeptides to be tested were dissolved in Stim B to be at a concentration of 2×, and added at 7 µL to the test cells, while 7 µL of PBS solution was added to the cells in the negative control wells. The plate was sealed and incubated at 37°C for 1 hour in a cell culture incubator. Detection wells, positive control wells containing human endothelin ET1 (ET1: […] (C1-C15,C3-C11)), and PBS control wells were each added with 3 µL of IP1 d2 working solution and 3 µL of IP1 Tb cryptotate Antibody working solution. The plate was then sealed and incubated in the dark at room temperature (25°C±5°C) for 1 hour. The plate seal was removed, and the […] at 665 nm and 620 nm was measured with an ID5 microplate reader. The ratio of the acceptor emission signal to the donor emission signal, i.e., (signal at 665 nm/signal at 620 nm)×10^4, was calculated for each well. With F representing the average value of values of signal at 665 nm/signal at 620 nm for the test samples at various concentrations, a scatterplot was plotted, where the abscissa represented the F value, and the ordinate represented the logarithmic value of the peptide concentration. A curve was fitted with an appropriate method to calculate EC50 values of the polypeptides against the human ETB receptor. Another method was provided for fitting a curve where activation rate of the test polypeptides at each concentration relative to the positive control sample human endothelin ET1 was calculated first with the method in Example 1, and a scatterplot was plotted, where the abscissa represented the activation rate, and the ordinate represented the logarithmic value of the polypeptide concentration. A curve was fitted with an appropriate method to calculate the EC50 values of the polypeptides against the human ETB receptor.

[2] = system: SD rats; conditions: rat, in vivo
Description: Male SD rats were anesthetized with isoflurane, and their neck hairs were shaved. A midline incision was made on the neck to expose the trachea. A ventilator and anesthesia machine for small animals were turned on, with concentration of an anesthetic gas set to 1.2, and its exit channel connected to an inlet of the ventilator. Tidal volume of the ventilator was set to 2 mL, the respiratory rate was 90 breaths/minute, and the respiratory ratio was 1:2. An outlet end of the ventilator was connected to a plastic hose, which was inserted into the rat's airway.
A machine and a software of a biological signal data acquisition and analysis system were turned on. One end of a data acquisition plate was connected to the plastic hose, and the other end was connected to a collector valve connected with a 1-mL syringe. The syringe was filled with heparinized saline, which was injected into the data acquisition plate to expel the air in the entire space until the heparinized saline flowed out from the other end of the plastic hose. The right common carotid arteries of the rats were isolated. A dead knot was made at the distal end and a slipknot at the proximal end of a right common carotid artery. A 1/2-sized incision was made in the artery between the knot with a microscissor, and the plastic hose with heparinized saline was inserted into the incision and fixed to prevent back-and-forth movement. The initial value of the blood pressure was set to zero with the zero-adjustment valve of the biological signal data acquisition and analysis system. The slipknot at the proximal end of the common carotid artery was untied, and real-time blood pressure data of the animal appeared on the software. […] The dosages of IRL1620, BX34, and BX229 were 5 µg/Kg, 42 µg/kg, and 6.6 µg/Kg, respectively.

[3] = system: male SD rats; experiment: in vivo; conditions: one animal per row, observed 24 hours
Description: (§1) In an experiment about acute toxicity of intravenous administration, male SD rats weighing 200-230 g were dosed in a range between 480 µg/Kg and 30 µg/Kg via tail vein injection in a descending order of dosage. […] Toxic response and mortality of the rats were preliminarily observed, and time of death and doses without mortality of the rats were recorded. The level of acute toxicity of the polypeptides was preliminarily determined based on the doses without mortality.

[4] = in vivo; conditions: male, SD, rat, in vivo, iv
Description: as §1

[5] = Determination of half-lives of polypeptides (plasma, LC-MS); conditions: C57 BL/6, mouse, plasma, iv
[6] = system: male SD rats; conditions: male SD rats, subcutaneous, observed for 48 hours
Description: In an experiment about acute toxicity of subcutaneous administration, male SD rats weighing 200-230 g were dosed in a range between 60 µg/Kg and 960 µg/Kg. Observation was made for 48 hours after subcutaneous administration. Toxic response and mortality of the rats were preliminarily observed, and time of death and doses without mortality were recorded. The level of acute toxicity of the polypeptides was preliminarily determined based on the doses without mortality.

[7] = system: mouse model of tMCAO; experiment: Garcia JH scoring in mouse model of tMCAO; assay type: in vivo, C57/6J mice
Description: Fifty-one male C57/6J mice, aged 10-12 weeks, weighing 25-30g, were housed for at least 2 days prior to the experiment to adapt to the environment (SPF Biotech). A mouse model of tMCAO was established. The mice were anesthetized with isoflurane. Their body temperature was controlled by a thermostatic blanket and monitored and maintained at 37±0.5°C. A middle incision was made in the skin on the mouse skull, the skin was pulled outward, and a bendable microneedle tip was fixed to the surface of the left parietal bone of the mouse skull. A middle incision on the neck was made to separate the right common carotid artery (CCA), external carotid artery (ECA) and internal carotid artery (ICA). According to the method of Longa (Longa et al., 1989), a silicone rubber-coated suture (RWD Life Science, suture end diameter: 0.22 mm-0.23 mm, MSMC23B120PK50) was introduced through an external carotid artery incision surgery and was slowly advanced through the internal carotid artery towards the origin of the middle cerebral artery. To ensure a sustained and successful occlusion of the middle cerebral artery, we monitored local cerebral blood flow of all stroke animals with a laser speckle flowmeter (generally, the blood flow can be reduced by 40-60% after stabilized). The suture was removed 45 min after the insertion for modeling, and the incision was sutured. Afterward, 1 mL of 37°C warm saline was injected subcutaneously, and the mice were placed on a heating pad until recovery. To alleviate pain, the mice were injected subcutaneously with Tilidine after awakening from anesthesia.
Successfully modeled C57 tMCAO mice were randomly assigned into three groups: a normal saline group, a 30µg/Kg BX229-Na administration group, and a 100µg/Kg BX229-Na administration group. Each group was administered once subcutaneously in the neck 4.5 hours after occlusion (D1), and was administered once more at the same sites and at the same time points on D3 and D6. A sham group included 6 animals. 2 mL/kg was administrated subcutaneously in the neck. Garcia JH scoring was made on D7 and D14 after administration. After the completion of the scoring on D14, the mice were euthanized and harvested for infarcted brain tissues, to extract total proteins. Changes in protein markers VEGF-A and BDNF in each experimental group were detected by ELISA. Table 19: Experimental Grouping and Dosing Regimen

[8] = 30µg/Kg subcutaneously on D1, D3, D6
[9] = tMCAO mice, 30µg/Kg s.c. on D1, D3, D6

SMILES | EC50 [1] [nM] | maximum extent of decrease in blood pressure, of the baseline blood pressure [2] | time to the lowest blood pressure [2] [min] | Maximum percentage of blood pressure reduction relative to baseline blood pressure (n = 3) ([2]; iv) | Time from baseline blood pressure to the lowest blood pressure ([2]; iv) [min] | Observations of Animal Status ([3]; intravenous (tail vein) 60 µg/Kg) | Observations of Animal Status ([3]; intravenous (tail vein) 90 µg/Kg) | Observations of Animal Status ([3]; intravenous (tail vein) 120 µg/Kg) | MTD at 24 h [4] [mg/kg] | half-life [5] [h] | acute toxicity of subcutaneous administration compared with IRL1620 [6] | Garcia JH-15 score on D7 compared with the normal saline group [7, 8] | Garcia JH-15 score on D14 compared with the normal saline group [7, 8] | Garcia JH-15 score on D7 compared with the normal saline group ([7]; 100µg/Kg subcutaneously on D1, D3, D6) | Garcia JH-15 score on D7 compared with the normal saline group [7, 9] | Garcia JH-15 score on D14 compared with the normal saline group [7, 9] | Garcia JH-15 score on D7 compared with the normal saline group ([7]; tMCAO mice, 100µg/Kg s.c. on D1, D3, D6) | Garcia JH-15 score on D14 compared with the normal saline group ([7]; tMCAO mice, 100µg/Kg s.c. on D1, D3, D6, P < 0.05) | total score of the Garcia JH-15 score, higher than in the normal saline group by ([7]; tMCAO mice, D7, 100µg/Kg s.c. on D1, D3, D6) [point]
CC[C@H](C)[C@H](NC(=O)[C@H](CC(=O)O)NC(=O)[C@H](CCCCN)NC(=O)[C@H](Cc1c[nH]cn1)NC(=O)[C@H](C)NC(=O)[C@H](Cc1ccccc1)NC(=O)[C@H](Cc1ccc(O)cc1)NC(=O)[C@@H](NC(=O)[C@H](C)NC(=O)[C@H](CCC(=O)O)NC(=O)[C@H](CCC(=O)O)NC(=O)[C@H](CC(=O)O)NC(=O)/C=C/C(=O)O)C(C)C)C(=O)N[C@H](C(=O)NC(Cc1ccc2ccccc2c1)C(=O)O)[C@@H](C)CC (some centres unmarked) [BX-13-2] (Fumaroyl-DEEAVYFAHKDII[ξ2Nal]-OH; C-terminus assumed) | 11.8 | – | – | – | – | – | – | – | – | – | – | – | – | – | – | – | – | – | –
CC[C@H](C)[C@H](NC(=O)[C@H](CC(=O)O)NC(=O)[C@H](CCCCN)NC(=O)[C@H](Cc1c[nH]cn1)NC(=O)[C@H](C)NC(=O)[C@H](Cc1ccccc1)NC(=O)[C@H](Cc1ccc(O)cc1)NC(=O)[C@@H](NC(=O)[C@H](C)NC(=O)[C@H](CCC(=O)O)NC(=O)[C@H](CCC(=O)O)NC(=O)[C@H](CC(=O)O)NC(=O)/C=C/c1ccc(O)c(OC)c1)C(C)C)C(=O)N[C@H](C(=O)N[C@@H](Cc1c[nH]c2ccccc12)C(=O)O)[C@@H](C)CC [BX-15] (Feruloyl-DEEAVYFAHKDIIW-OH; C-terminus assumed) | 41.1 | – | – | – | – | – | – | – | – | – | – | – | – | – | – | – | – | – | –
CCCCCCCCCCCC(=O)N[C@@H](CCC(=O)NCCOCCOCC(=O)NCCCC[C@H](NC(=O)[C@H](Cc1c[nH]cn1)NC(=O)[C@H](C)NC(=O)[C@H](Cc1ccccc1)NC(=O)[C@H](Cc1ccc(O)cc1)NC(=O)[C@@H](NC(=O)[C@H](C)NC(=O)[C@H](CCC(=O)O)NC(=O)[C@H](CCC(=O)O)NC(=O)[C@H](CC(=O)O)NC(=O)/C=C/C(=O)O)C(C)C)C(=O)N[C@@H](CC(=O)O)C(=O)N[C@H](C(=O)N[C@H](C(=O)N[C@@H](Cc1c[nH]c2ccccc12)C(=O)O)[C@@H](C)CC)C(C)C)C(=O)O [BX-229] (Fumaroyl-DEEAVYFAHK([AEEA-γGlu-Lauroyl])DVIW-OH) | – | 17.0%±2.0% | 20 to 35 | 17.0%±2.0% | 20 to 30 | No obvious reaction within 1 hour; developed rapid breathing at 1 hour; recovered to normal after 10 minutes | Died at 1 hour after administration; also recorded: Developed rapid breathing at 25 minutes after administration; recovered after 25 minutes; showed no willingness to move; also recorded: Developed rapid breathing and the body turned purple at 1 hour after administration; partially recovered after 30 minutes; also recorded: Developed rapid breathing and diarrhea at 45 minutes after administration; recovered after 25 minutes; also recorded: Developed rapid breathing at 44 minutes after administration; died of convulsions at 52 minutes after administration; also recorded: Developed rapid breathing at 43 minutes after administration; recovered after 30 minutes | Died at 26 minutes after administration; had white discharge in the nasal cavity and developed diarrhea | 0.06 | 1.28 | much lower | better scores than the normal saline group | better scores than that of the normal saline group | better scores than the normal saline group | better scores | better scores | better scores | significantly different | 1
